In PubChem BioAssay (NCI) one finds TGI and GI50 data, which are given here for 14 molecules.

Each structure is given as a SMILES string.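 Compound exposure: 48 hours, 5 concentrations, 96-well plates. Abbreviation: GI50, concentration required for 50% inhibition of growth. TGI: total growth inhibition.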

Some test systems named below: U251 CNS; SNB-75 CNS; 786-0 renal; HS 578T breast; MDA-MB-435; IGROV1 ovarian; CCRF-CEM leukemia; T-47D breast; HCC-2998 colon; OVCAR-4 ovarian.
What all share (assay): growth of human tumour cells (NCI), 48 h

Regarding `COC[C@H](Cc1ccccc1)N=Cc1ccccc1`, the TGI in the test on U251 CNS, in the test with SNB-75 CNS, in the test with 786-0 renal, in the test on HS 578T breast, in the test on MDA-MB-435 and in the test with IGROV1 ovarian was > 100 µM each time. The TGI in the test with CCRF-CEM leukemia, with T-47D breast, in the test with HCC-2998 colon and in the test with OVCAR-4 ovarian was > 100 µM throughout.

Take `CCOC(=O)C1C(=O)C=C(c2cc(C)ccc2O)CC1c1cccc(Br)c1` (stereo not given): the TGI in the test with U251 CNS came to 32 µM; in the test on 786-0 renal, 39.8 µM; in the test with HS 578T breast it was 34.4 µM; in the test with MDA-MB-435 it was 8.81 µM; in the test on IGROV1 ovarian, 39.5 µM; with CCRF-CEM leukemia, 71.7 µM. Further, the results for the TGI with T-47D breast, in the test with HCC-2998 colon and in the test on OVCAR-4 ovarian were 72 µM, 34.6 µM and 5.17 µM, respectively.

Take `O=C1NC(N2CCCC(CO)C2)=N/C1=C\c1ccc(O)cc1` (stereo not given): the TGI with U251 CNS, with SNB-75 CNS, in the test with 786-0 renal, in the test on HS 578T breast, with MDA-MB-435 and in the test with IGROV1 ovarian was > 100 µM throughout. Also, the TGI with CCRF-CEM leukemia, in the test on T-47D breast, in the test with HCC-2998 colon and in the test on OVCAR-4 ovarian was > 100 µM throughout.

Turning to `COC(=O)C(I(OS(=O)(=O)c1ccc(C)cc1)c1ccccc1)=P(c1ccccc1)(c1ccccc1)c1ccccc1`, the TGI was 40.7 µM in the test on U251 CNS; 28.9 µM in the test with 786-0 renal; 85.1 µM in the test with HS 578T breast; 36.5 µM in the test on MDA-MB-435; 37.7 µM with IGROV1 ovarian; > 100 µM with CCRF-CEM leukemia. For the same molecule, the results for the TGI in the test on T-47D breast, in the test on HCC-2998 colon and with OVCAR-4 ovarian were 48.2 µM, 34.8 µM and 27 µM, respectively.

Regarding `CCOc1c(OC)cc(CNNc2nccs2)cc1OC`, the TGI in the test on U251 CNS, in the test with SNB-75 CNS, in the test on 786-0 renal, with HS 578T breast, in the test with MDA-MB-435 and with IGROV1 ovarian was > 100 µM in each case. Also, the TGI in the test on CCRF-CEM leukemia, in the test with T-47D breast, with HCC-2998 colon and in the test on OVCAR-4 ovarian was > 100 µM throughout.

For the molecule `CCOC(=O)C1(C/C=C\CBr)CCCCCCC1=O` (stereo not given), the TGI with U251 CNS, with SNB-75 CNS, in the test with 786-0 renal, in the test on HS 578T breast, in the test with MDA-MB-435 and with IGROV1 ovarian was > 100 µM each time. The TGI in the test on CCRF-CEM leukemia, in the test with T-47D breast and in the test with OVCAR-4 ovarian was > 100 µM each time.

In the case of `COc1cc(OC)cc(N(C)Cc2cnc3nc(N)nc(N)c3c2C)c1`, the TGI with U251 CNS, with SNB-75 CNS, in the test on 786-0 renal, in the test on HS 578T breast, in the test with MDA-MB-435 and in the test with IGROV1 ovarian was > 100 µM in each case. For the same molecule, the TGI in the test with CCRF-CEM leukemia, in the test with T-47D breast, with HCC-2998 colon and in the test on OVCAR-4 ovarian was > 100 µM each time.

As to `C=C(Cl)C(Cl)(CBr)CCC(Cl)C(C)C` (stereo not given), the TGI stood at 1.88 µM in the test on U251 CNS; 5.66 µM with SNB-75 CNS; 4.26 µM with 786-0 renal; 4.07 µM with HS 578T breast; 20.6 µM in the test on MDA-MB-435; 30.8 µM in the test on IGROV1 ovarian. Also, the TGI with CCRF-CEM leukemia is > 100 µM; in the test on T-47D breast it was 0.411 µM; with HCC-2998 colon it was 15.2 µM; in the test with OVCAR-4 ovarian it was 25.4 µM.

Turning to `CC(C)(C)OC(=O)N1CC(COS(C)(=O)=O)c2ccc(O)cc21` (stereo not given), the TGI turned out to be 9.69 µM in the test with U251 CNS; 3.05 µM in the test on SNB-75 CNS; 11 µM in the test on 786-0 renal; 5.75 µM in the test with HS 578T breast; 3.21 µM in the test with MDA-MB-435; 12.1 µM in the test on IGROV1 ovarian. Besides, the TGI with CCRF-CEM leukemia came out at 3.06 µM; in the test on T-47D breast it was 11.1 µM; in the test with HCC-2998 colon it was 0.991 µM; in the test on OVCAR-4 ovarian it was 3.13 µM.

With `CC(C)(C)OC(=O)N(CCCN)CCCCN(CCCN)C(=O)OC(C)(C)C`, the TGI with U251 CNS, in the test with SNB-75 CNS, with 786-0 renal, in the test with HS 578T breast, in the test with MDA-MB-435 and in the test with IGROV1 ovarian was > 100 µM throughout. Moreover, the TGI in the test on CCRF-CEM leukemia, with T-47D breast, with HCC-2998 colon and with OVCAR-4 ovarian was > 100 µM each time.

In the case of `COCN1C(=O)[C@@H]2C[C@@H](OC/C=C/CBr)CN2C(=O)c2ccccc21`, the TGI in the test with U251 CNS was 74.8 µM; with SNB-75 CNS, 27.9 µM; with 786-0 renal it was 53.9 µM; in the test on HS 578T breast it was > 100 µM; in the test with MDA-MB-435, 50.9 µM; in the test on IGROV1 ovarian, 26.5 µM. In addition, the TGI in the test on CCRF-CEM leukemia is > 100 µM; in the test on T-47D breast, 59 µM; in the test with OVCAR-4 ovarian it was 35.7 µM.

As for `CC(=O)CC(=O)Nn1c(-c2cccs2)nc2ccc(I)cc2c1=O`, the TGI is > 100 µM with U251 CNS; > 100 µM in the test with SNB-75 CNS; > 100 µM in the test on 786-0 renal; 71.3 µM in the test on HS 578T breast; > 100 µM in the test on MDA-MB-435; > 100 µM in the test on IGROV1 ovarian. For the same molecule, the TGI is > 100 µM in the test on CCRF-CEM leukemia, > 100 µM with T-47D breast, > 67.4 µM in the test with HCC-2998 colon and > 100 µM with OVCAR-4 ovarian. For the same molecule, the GI50 in the test with HS 578T breast is 18.9 µM.

Consider `CC(=S)NC1C(Oc2ccc3c(C)cc(=O)oc3c2)OC(CO)C(O)C1O` (stereo not given), for which the TGI in the test on U251 CNS, in the test on SNB-75 CNS, with HS 578T breast, in the test with MDA-MB-435, in the test with IGROV1 ovarian and with CCRF-CEM leukemia was > 100 µM in each case. For the same molecule, the TGI in the test on T-47D breast and in the test with OVCAR-4 ovarian was > 100 µM each time.

`CC(C)(C)C(=O)C(C#N)C(=O)C(C)(C)C`: the TGI in the test on U251 CNS, in the test with SNB-75 CNS, in the test with 786-0 renal, in the test with HS 578T breast, with MDA-MB-435 and in the test with IGROV1 ovarian was > 100 µM throughout. The TGI in the test with CCRF-CEM leukemia, with T-47D breast, in the test with HCC-2998 colon and with OVCAR-4 ovarian was > 100 µM each time.
